From patent US3950513A, “Process of stabilizing therapeutically useful plasmin solutions” (Novo Terapeutisk Laboratorium A/S, priority 1969, dated 1976)
“Also recorded” adds a separate entry of the source. Like-named read-outs stand apart in the source and are kept apart here. Blank lines part the entries; values can stand above or below the molecule they belong to. Where a SMILES comes first, the peptide text is derived from it.

Key:
[1] = target: T1, plasmin originating from swine blood (Sus scrofa, UniProt P06867); experiment: Stabilizing effect of amino acids on plasmin solution, residual plasmin activity (casein) on storage; format: biochemical; details: 35.5°C, employed concentration 0.25 millimole per plasmin unit
T1 construct: from tissue; host or cells: swine blood
Method: (§1) Usually the activity of plasmin solutions is expressed in the number of plasmin units per milliliter. However, no definition of a plasmin unit has until now been internationally adopted. Here and in the following one plasmin unit means the amount of plasmin causing in 20 minutes the formation of decomposition products being soluble in perchloric acid and having an extinction of 1 unit at 275 mμ under the following experimental conditions:
(§2) By the addition of the perchloric acid a precipitation takes place, and the two test tubes now stand for 20 minutes whereafter filtration two times through filtering paper (J. H. Munktells unrivalled Genuine Swedish Filtering Paper No. 0.9 cm) is carried out. The extinction of the two solutions is thereafter measured at 275 mμ in a Beckman D U Spectrophotometer (1 cm quartz cuvette), the value of the sample having stood for 2 minutes being used as blind value.
If not, a saturated amino acid solution is employed.

[2] = system: partially purified plasmin from human plasma; details: cited from earlier work; for effect on autolysis of plasmin: neutral solutions, 37°C
[3] = target: T2, plasmin solution from swine blood (Sus scrofa, UniProt P06867); experiment: Plasmin activity at high amino acid concentration and after dilution (reversible inactivation); format: biochemical
T2 construct: from tissue; host or cells: swine blood
Method: as §1
as §2, with “1 […] OF THE PLASMIN SOLUTION THE ACTIVITY OF WHICH IS TO BE DETERMINED AND THE PH of which is 7.5 is added to two test tubes each containing in 0.4 molar phosphate buffer (pH 7.50) 1 milliliter of a 3 per cent's solution of Hammarsten Casein said solution having been preheated to 35.5°C. […] By” for “By”
By way of illustration reference may be made to the following experiments:
a. A plasmin solution from swine blood and containing about 0.4 plasmin unit per milliliter and 2 millimoles of L-lysine per plasmin unit is produced in phosphate buffer (pH 7.5) whereafter the plasmin activity of the mixture is determined and compared with the activity of the plasmin solution without the amino acid addition and the activity of the mixture is expressed in per cent of the activity of the unmixed plasmin solution. Thereafter a dilution of the solution is carried out expressed in the original volume of the plasmin solution divided by the volume of the plasmin solution after the dilution, and the activity of the diluted solutions is determined.

plasmin [4] = target: plasmin (Homo sapiens, UniProt P00747); details: plasmin about 0.047 to about 0.229 units per ml; cited from earlier work
plasmin [5] = target: T3, plasmin (Sus scrofa, UniProt P06867); format: biochemical, swine; details: for % activity after 120 min. at 25°C / % activity after 60 min. at 25°C: 0.3 plasmin units per ml
Method: as §1
as §2, with “1 […] THE PLASMIN SOLUTION THE ACTIVITY OF WHICH IS TO BE […] THE PH of which is 7.5 is added to two test tubes each containing in 0.4 molar phosphate buffer (pH 7.50) 1 […] a 3 per cent's solution of Hammarsten Casein said solution having been preheated to 35.5°C. […] By” for “By”
The stabilizing effect of a long series of amino acids has been examined in connection with plasmin originating from swine blood and dissolved in phosphate buffer (pH 7.5). […] If not, a saturated amino acid solution is employed.

plasmin [6] = target: T3, plasmin; experiment: Initial loss of plasmin on adjusting concentrated acidified solution to pH 7.5; format: biochemical; details: 10 plasmin units per ml adjusted to pH 7.5 at 25°C
Excerpt: In the tests referred to above use has been made of plasmin solutions having a plasmin content of 0.3 and 0.4 units, respectively, per milliliter. When using more concentrated solutions, e.g. containing 10 plasmin units per milliliter, an appreciable initial loss of plasmin will occur immediately by the adjustment of the pH-value from 2-3 up to neutral reaction unless amino acids are present in sufficient amounts. Thus, in the course of a few minutes an initial loss of 20 per cent may e.g. arise when an acidified plasmin solution containing 10 plasmin units per milliliter is adjusted to pH 7.5 at 25°C even if lysine is present in the solution in an amount of 0.002 millimole per plasmin unit. Such initial loss can, however, be avoided by increasing the amino acid concentration.

[7] = Solubility of plasmin in neutral aqueous solution; format: physicochemical; details: no amino acid
Excerpt: While a neutral solution of plasmin in water becomes turbid due to a precipitation of plasmin when the plasmin concentration is 0.01 unit and more per milliliter, it is possible by the addition of an amino acid to produce clear neutral plasmin solutions having a plasmin concentration up to 25 units per milliliter.

[8] = Stability of plasmin solutions without amino acid
Excerpt: Further, it is possible to produce a sterile plasmin solution which is adjusted to pH 1 to 4. […] By mixing such solution before use with a sterile amino acid solution which has either been buffered with one of the normal acid-base-buffer systems or has a sufficient amino acid content, it is possible to obtain a neutral stable plasmin solution.

[9] = pH 7.5, read-out: Activity expressed in per cent of the total activity
[10] = 0.010 millimole L-lysine per plasmin unit
[11] = 0.021 millimole L-lysine per plasmin unit
[12] = 0.042 millimole L-lysine per plasmin unit

T1 sequence (P06867 97-579 limits assumed): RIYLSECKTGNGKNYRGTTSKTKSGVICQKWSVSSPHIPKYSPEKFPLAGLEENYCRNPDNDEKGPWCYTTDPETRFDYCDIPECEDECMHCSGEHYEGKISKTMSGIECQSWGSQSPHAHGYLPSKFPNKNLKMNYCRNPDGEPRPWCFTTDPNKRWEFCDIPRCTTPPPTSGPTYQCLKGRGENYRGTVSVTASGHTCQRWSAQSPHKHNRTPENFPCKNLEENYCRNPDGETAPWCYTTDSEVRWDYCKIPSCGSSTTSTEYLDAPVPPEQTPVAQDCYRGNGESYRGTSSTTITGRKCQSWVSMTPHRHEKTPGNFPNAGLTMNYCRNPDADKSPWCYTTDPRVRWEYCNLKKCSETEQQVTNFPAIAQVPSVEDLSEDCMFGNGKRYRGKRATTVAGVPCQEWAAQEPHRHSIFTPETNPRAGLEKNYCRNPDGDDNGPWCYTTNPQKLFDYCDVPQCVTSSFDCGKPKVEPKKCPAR
T1 sequence (P06867 580-809 limits assumed): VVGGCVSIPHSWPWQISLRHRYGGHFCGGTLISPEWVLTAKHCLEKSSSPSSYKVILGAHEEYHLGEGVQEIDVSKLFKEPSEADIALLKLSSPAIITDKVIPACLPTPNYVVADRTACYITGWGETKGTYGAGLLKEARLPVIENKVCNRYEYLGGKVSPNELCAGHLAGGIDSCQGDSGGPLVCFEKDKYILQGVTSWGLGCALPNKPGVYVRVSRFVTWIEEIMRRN
T2 sequence (P06867 97-579 limits assumed): as the sequence (P06867 97-579 limits assumed) above
T2 sequence (P06867 580-809 limits assumed): as the sequence (P06867 580-809 limits assumed) above
T3 sequence (P06867 97-579 limits assumed): as the sequence (P06867 97-579 limits assumed) above
T3 sequence (P06867 580-809 limits assumed): as the sequence (P06867 580-809 limits assumed) above

- stabilizing effect (in words) [1]: strongly stabilizing effect
Molecule: NCC(=O)NCC(=O)O [Glycyl glycine] (H-Gly-Gly-OH)

Molecule: NCCCC(=O)O [γ-amino butyric acid]
- stabilizing effect (in words) [1]: stabilize considerably better than β-alanine

- stabilizing effect (in words) [1]: almost identical with that of glycine
Molecule: N[C@@H](CC(=O)O)C(=O)O [L(+)-aspartic acid]

Molecule: NCC(=O)O [Glycine]
- stabilizing effect (in words) [1]: rather insignificant; also recorded: faintly stabilizing effect

Molecule: N=C(N)NCC(=O)O [Guanidino acetic acid]
- stabilizing effect (in words) [1]: considerably better than that of glycine and DL-valine

Molecule: CN(CC(=O)O)C(=N)N [Creatine]
- stabilizing effect (in words) [1]: considerably better than that of glycine and DL-valine

- stabilizing effect (in words) [1]: excellent stabilizing effect
Molecule: CC(=O)N[C@@H](CCCNC(=N)N)C(=O)O [α-N-acetyl-L-arginine]

Molecule: O=C(O)[C@@H]1C[C@@H](O)CN1 [L(-)-hydroxyproline]
- stabilizing effect (in words) [1]: limited stabilizing effect

Molecule: NC(N)=O [urea]
- effect on autolysis of plasmin [2]: may inhibit this autolysis

- stabilizing effect (in words) ([1]; listed as ε-amino caproic acids): strongly stabilizing effect
- activity at 800000 µM ([3]; Undiluted, 0.8 millimole amino acid per ml, 2 millimoles per plasmin unit, about 0.4 unit per ml, pH 7.5, read-out: Activity expressed in per cent of the total activity): 57%
- activity at 160000 µM ([3]; pH 7.5, Dilution 1:5, 0.16 millimole amino acid per ml, read-out: Activity expressed in per cent of the total activity): 93%
- activity at 320000 µM ([3]; pH 7.5, Dilution 2:5, 0.32 millimole amino acid per ml, read-out: Activity expressed in per cent of the total activity): 84%
- activity at 480000 µM ([3]; pH 7.5, Dilution 3:5, 0.48 millimole amino acid per ml, read-out: Activity expressed in per cent of the total activity): 71%
- activity at 640000 µM ([3]; pH 7.5, Dilution 4:5, 0.64 millimole amino acid per ml, read-out: Activity expressed in per cent of the total activity): 65%
Molecule: NCCCCCC(=O)O [ε-amino caproic acid]
- stabilizing effect (in words) [1]: stabilize considerably better than β-alanine
- concentration at which it acts as an inhibitor of the action of plasmin (plasmin [4]): above 0.03 M
- concentration at which it exhibits an enhancing effect on the action of plasmin (plasmin [4]): up to 0.02 M

Molecule: CSCCC(N)C(=O)O (racemic) [DL-methionine]
- stabilizing effect (in words) [1]: possible to obtain a stabilizing effect

Molecule: O=C(O)[C@@H]1CCCN1 [L(-)-proline]
- stabilizing effect (in words) [1]: limited stabilizing effect

Molecule: CN [methylamine]
- effect on autolysis of plasmin [2]: may inhibit this autolysis

Molecule: NCCCC[C@H](N)C(=O)O [L-lysine]
- stabilizing effect (in words) [1]: strongly stabilizing effect
- stabilizing effect (in words) ([1]; listed as lysine): most vigorous stabilizing effect
- reversibility of the inactivation by dilution ([3]; Table IV): reversible
- activity at 160000 µM [3, 9]: 97%
- activity at 320000 µM [3, 9]: 100%
- activity at 480000 µM [3, 9]: 92%
- activity at 640000 µM [3, 9]: 84%
- activity at 800000 µM [3, 9]: 88%
- lysine concentration above which it has an inactivating effect on the plasmin solution ([3]; plasmin concentration 1/2 unit per millimole lysine): above 0.32 millimole per ml
- % activity after 120 min. at 25°C (plasmin [5]; 0.005 millimole L-lysine per plasmin unit, without lysine 70): 78%
- % activity after 60 min. at 25°C (plasmin [5]; 0.005 millimole L-lysine per plasmin unit, without lysine 77): 88%
- % activity after 60 min. at 25°C (plasmin [5]; [10]): 91%
- % activity after 120 min. at 25°C (plasmin [5]; [10]): 84%
- % activity after 60 min. at 25°C (plasmin [5]; [11]): 99%
- % activity after 120 min. at 25°C (plasmin [5]; [11]): 91%
- % activity after 60 min. at 25°C (plasmin [5]; [12]): 100%
- % activity after 120 min. at 25°C (plasmin [5]; [12]): 99%
- lysine concentration necessary to avoid a plasmin loss by standing for two hours (plasmin [5]; 25°C): 0.04 millimole per plasmin unit
- lysine concentration sufficient to allow only a plasmin loss of about 20 per cent by standing for 2 hours (plasmin [5]; 25°C): about 0.005 millimole per plasmin unit
- lysine concentration necessary to allow only a plasmin loss of about 20 per cent by standing for 2 hours (plasmin [5]; 35.5°C): about 0.1 millimole per plasmin unit
- lysine concentration necessary to avoid a plasmin loss by standing for two hours (plasmin [5]; 35.5°C, plasmin concentration of 0.4 plasmin units per ml): above 0.25 millimole per plasmin unit
- initial loss of plasmin in the course of a few minutes (plasmin [6]; lysine 0.002 millimole per plasmin unit): 20 per cent
- initial loss of plasmin (plasmin [6]; lysine 0.04 millimole per plasmin unit): avoid completely an initial loss

B1: plasmin: proteolytic enzyme plasmin in aqueous solution without amino acid addition (protein, UniProt P00747 20-580; P00747 581-810, looked up)
Plasmin heavy chain A: EPLDDYVNTQGASLFSVTKKQLGAGSIEECAAKCEEDEEFTCRAFQYHSKEQQCVIMAENRKSSIIIRMRDVVLFEKKVYLSECKTGNGKNYRGTMSKTKNGITCQKWSSTSPHRPRFSPATHPSEGLEENYCRNPDNDPQGPWCYTTDPEKRYDYCDILECEEECMHCSGENYDGKISKTMSGLECQAWDSQSPHAHGYIPSKFPNKNLKKNYCRNPDRELRPWCFTTDPNKRWELCDIPRCTTPPPSSGPTYQCLKGTGENYRGNVAVTVSGHTCQHWSAQTPHTHNRTPENFPCKNLDENYCRNPDGKRAPWCHTTNSQVRWEYCKIPSCDSSPVSTEQLAPTAPPELTPVVQDCYHGDGQSYRGTSSTTTTGKKCQSWSSMTPHRHQKTPENYPNAGLTMNYCRNPDADKGPWCFTTDPSVRWEYCNLKKCSGTEASVVAPPPVVLLPDVETPSEEDCMFGNGKGYRGKRATTVTGTPCQDWAAQEPHRHSIFTPETNPRAGLEKNYCRNPDGDVGGPWCYTTNPRKLYDYCDVPQCAAPSFDCGKPQVEPKKCPGR
Plasmin light chain B: VVGGCVAHPHSWPWQVSLRTRFGMHFCGGTLISPEWVLTAAHCLEKSPRPSSYKVILGAHQEVNLEPHVQEIEVSRLFLEPTRKDIALLKLSSPAVITDKVIPACLPSPNYVVADRTECFITGWGETQGTFGAGLLKEAQLPVIENKVCNRYEFLNGRVQSTELCAGHLAGGTDSCQGDSGGPLVCFEKDKYILQGVTSWGLGCARPNKPGVYVRVSRFVTWIEGVMRNN
modifications: Plasmin
notes: proteolytic enzyme plasmin in aqueous solution without amino acid addition
- plasmin concentration at which a neutral solution in water becomes turbid due to precipitation of plasmin [7]: ≥ 0.01 unit per milliliter
- stability in neutral solutions ([2]; rapid loss of proteolytic activity at 37°C): unstable
- plasmin concentration above which neutral solutions must be considered unstable ([8]; criterion: highest permissible loss 20 per cent in 2 hours at 25°C): more than 0.1 unit per milliliter
- stability of acid sterile plasmin solution ([8]; pH 1 to 4, stored at 4°-5°C): stable for several months
- stability of aqueous plasmin solution ([8]; pH-value of 2 to 3, temperatures up to 35°C): practically completely stable
